pIC50: −log10 of the molar value.
Target: Cav3.2 (Homo sapiens, UniProt O95180)
Test: Calcium flux FLIPR assay, HEK293 cells recombinantly expressing Cav3.2
Assay type: cell-based
Conditions: Cav3.2-channel, Ca2+ entry stimulated by 10 mM CaCl2
Description: In Vitro Methods—Measurement of Calcium Channel Flux by Means of FLIPR Assays.
HEK293 cells recombinantly expressing either voltage-dependent T-type calcium channel subunit […] (Cav3.2) or voltage-dependent L-type calcium channel subunit alpha-1C (Cav1.2) are assayed for calcium flux using the calcium indicator dye Fluo-4-AM (Molecular Devices) and FLIPR technology (Fluorometric Imaging Plate Reader, Molecular Devices) (Xie X, Van Deusen A L, Vitko I, Babu D A, Davies L A, Huynh N, Cheng H, Yang N, Barrett P Q, Perez-Reyes E. Validation of high throughput screening assays against three subtypes of Ca(v)3 T-type channels using molecular and pharmacologic approaches. Assay and Drug Development Technologies 2007, 5(2), 191-203). The HEK293 cells recombinantly expressing Cav3.2 are maintained in DMEM growth medium (Life Technologies) supplemented with 10% Fetal Bovine Serum (FBS), 100 U/ml penicilin (Life Technologies), 100 μg/ml streptomycin (Life Technologies) and 1 mg/ml G418 (Life Technologies). HEK293 cells recombinantly expressing Cav1.2 are maintained in DMEM growth medium (Life technologies) supplemented with 10% FBS, 0.1 mg/ml G418 (Life Technologies), 0.1 mg/ml hygromycin (Life Technologies) and 40 ug/ml zeocin (Life Technologies).
Cells are washed once with PBS, then dissociated in 0.25% trypsin/EDTA (Life Technologies) and seeded into poly-D-lysine coated 384-well black, clear bottom plates (BD Biosciences) at a density of 30,000 cells/well. The seeded plates are incubated overnight at 37° C.
Immediately prior to performing the assay, medium is removed and cells are treated for 1 hour at 37° C. with loading buffer containing HBSS 1× (137 mM NaCl; 5.4 mM KCl; 0.25 mM Na2HPO4; 1.3 mM CaCl2; 0.4 mM MgSO04; 0.5 mM MgCl2; 0.4 mM KH2PO4, pH 7.4), 0.375 g/L NaHCO3, 20 mM Hepes, supplemented with 3 μM Fluo-4-AM and 0.15% Pluronic (Life Technologies). The cells are then washed three times with assay buffer (HBSS 1×; 0.375 g/L NaHCO3; 20 mM Hepes; 1% FBS; pH 7.4) and allowed to rest in 50 μl of wash buffer for 30 minutes.
Stock solutions of test compounds are prepared to a concentration of 10 mM in DMSO. For the Cav3.2 assay, serial dilutions of the compounds are prepared in TEAC buffer (100 mM tetraethylammonium chloride; 20 mM Hepes; 2.5 mM CaCl2; 5 mM KCl; 1 mM MgCl2; 1% FBS; pH 7.2), for the Cav1.2 assay serial dilutions are prepared in assay buffer. […] The compounds are incubated with the cells for 3 minutes and Ca2+ entry is stimulated by adding either CaCl2 to a final concentration of 10 mM (Cav3.2 assay) or by adding KCl to a final concentration of 20 mM (Cav1.2 assay). The kinetics of fluorescence increase are recorded for every well and the area under the fluorescence trace for every compound concentration is used to generate inhibition curves using non-linear regression sigmoidal concentration-response curve analysis with in-house software. IC50 values are calculated and represent the compound concentration required to inhibit 50% of the signal that is obtained in the presence of vehicle instead of test compound.

Cav3.2, sequence (O95180 whole entry, looked up): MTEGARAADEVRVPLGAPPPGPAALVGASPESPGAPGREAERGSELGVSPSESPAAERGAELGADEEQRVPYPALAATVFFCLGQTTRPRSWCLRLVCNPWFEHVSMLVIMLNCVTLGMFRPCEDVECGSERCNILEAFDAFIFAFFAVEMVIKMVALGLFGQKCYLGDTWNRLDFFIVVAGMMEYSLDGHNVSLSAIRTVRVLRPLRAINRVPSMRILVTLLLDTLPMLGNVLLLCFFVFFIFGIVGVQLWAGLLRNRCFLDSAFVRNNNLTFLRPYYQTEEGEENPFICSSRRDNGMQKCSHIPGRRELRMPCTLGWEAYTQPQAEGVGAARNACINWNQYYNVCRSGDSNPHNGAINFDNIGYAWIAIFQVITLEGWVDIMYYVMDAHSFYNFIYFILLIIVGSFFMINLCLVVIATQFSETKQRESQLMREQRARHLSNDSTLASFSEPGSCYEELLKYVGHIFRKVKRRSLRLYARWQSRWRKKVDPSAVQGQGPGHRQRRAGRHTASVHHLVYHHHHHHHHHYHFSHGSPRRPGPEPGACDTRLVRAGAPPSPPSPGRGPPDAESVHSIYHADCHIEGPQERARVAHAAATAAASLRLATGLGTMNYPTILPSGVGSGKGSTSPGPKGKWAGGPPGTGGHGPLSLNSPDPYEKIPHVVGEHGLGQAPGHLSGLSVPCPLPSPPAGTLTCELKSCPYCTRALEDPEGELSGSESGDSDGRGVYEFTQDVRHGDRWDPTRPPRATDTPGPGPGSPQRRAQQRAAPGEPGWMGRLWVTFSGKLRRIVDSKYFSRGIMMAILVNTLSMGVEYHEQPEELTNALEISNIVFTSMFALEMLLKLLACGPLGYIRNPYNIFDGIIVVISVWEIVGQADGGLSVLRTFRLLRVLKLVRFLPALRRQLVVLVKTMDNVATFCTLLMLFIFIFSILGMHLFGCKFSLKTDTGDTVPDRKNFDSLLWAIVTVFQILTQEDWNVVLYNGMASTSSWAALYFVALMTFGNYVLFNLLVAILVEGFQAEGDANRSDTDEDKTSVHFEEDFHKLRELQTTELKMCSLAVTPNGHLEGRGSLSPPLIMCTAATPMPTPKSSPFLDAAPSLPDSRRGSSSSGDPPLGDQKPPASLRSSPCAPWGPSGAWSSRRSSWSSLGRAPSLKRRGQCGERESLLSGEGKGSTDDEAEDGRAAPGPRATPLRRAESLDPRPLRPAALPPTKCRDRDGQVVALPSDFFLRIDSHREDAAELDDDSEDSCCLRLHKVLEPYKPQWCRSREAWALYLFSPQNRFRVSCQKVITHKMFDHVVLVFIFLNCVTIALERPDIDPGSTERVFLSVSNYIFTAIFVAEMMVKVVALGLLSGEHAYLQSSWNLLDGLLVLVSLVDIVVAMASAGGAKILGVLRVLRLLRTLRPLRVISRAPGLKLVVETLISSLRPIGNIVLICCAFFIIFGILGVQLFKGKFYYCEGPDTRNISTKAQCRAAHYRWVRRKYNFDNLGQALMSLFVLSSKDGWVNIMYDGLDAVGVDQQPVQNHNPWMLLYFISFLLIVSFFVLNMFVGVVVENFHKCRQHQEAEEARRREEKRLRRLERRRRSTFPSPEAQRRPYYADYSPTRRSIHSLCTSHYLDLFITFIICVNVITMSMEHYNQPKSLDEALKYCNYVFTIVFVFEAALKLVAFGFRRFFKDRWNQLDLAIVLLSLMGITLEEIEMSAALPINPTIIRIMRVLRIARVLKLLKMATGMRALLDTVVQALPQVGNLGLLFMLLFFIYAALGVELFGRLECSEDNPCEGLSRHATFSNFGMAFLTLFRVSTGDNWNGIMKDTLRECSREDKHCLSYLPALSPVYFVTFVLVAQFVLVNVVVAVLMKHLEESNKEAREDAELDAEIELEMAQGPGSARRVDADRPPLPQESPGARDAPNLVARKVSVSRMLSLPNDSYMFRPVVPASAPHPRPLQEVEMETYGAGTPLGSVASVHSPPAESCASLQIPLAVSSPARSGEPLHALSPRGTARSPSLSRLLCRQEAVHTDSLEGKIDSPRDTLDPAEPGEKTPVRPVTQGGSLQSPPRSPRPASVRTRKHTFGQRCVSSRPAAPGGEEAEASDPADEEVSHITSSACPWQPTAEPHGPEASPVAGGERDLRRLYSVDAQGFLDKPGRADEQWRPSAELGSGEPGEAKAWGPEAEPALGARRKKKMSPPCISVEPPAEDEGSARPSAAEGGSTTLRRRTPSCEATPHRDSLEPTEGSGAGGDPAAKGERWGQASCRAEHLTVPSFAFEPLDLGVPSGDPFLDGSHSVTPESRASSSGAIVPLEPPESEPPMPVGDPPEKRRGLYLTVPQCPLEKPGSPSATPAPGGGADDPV

Structure (SMILES)	pIC50
CCOc1ccc(Cn2ncc(NC(=O)Cc3ccc4c(ccn4C)c3)n2)cc1 [Example 40, N-[2-(4-Ethoxy-benzyl)-2H-[1,2,3]triazol-4-yl]-2-(1-methyl-1H-indol-5-yl)-acetamide]	7.46
CCOc1ccc(Cn2ncc(NC(=O)Cc3ccc(C(C)(C)C)cc3)n2)cc1 [Example 43, 2-(4-tert-Butyl-phenyl)-N-[2-(4-ethoxy-benzyl)-2H-[1,2,3]triazol-4-yl]-acetamide]	7.35
COc1ccc(Cn2ncc(NC(=O)Cc3ccc(N4CCC(F)(F)C4)nc3)n2)cc1OC [Example 48, 2-[6-(3,3-Difluoro-pyrrolidin-1-yl)-pyridin-3-yl]-N-[2-(3,4-dimethoxy-benzyl)-2H-[1,2,3]triazol-4-yl]-acetamide]	6.28
COc1ccc(Cn2ncc(NC(=O)Cc3ccc(C(C)C)cc3)n2)cc1OC [Example 50, N-[2-(3,4-Dimethoxy-benzyl)-2H-[1,2,3]triazol-4-yl]-2-(4-isopropyl-phenyl)-acetamide]	6.80
Cn1ccc2cc(CC(=O)Nc3cnn(Cc4ccc(F)cc4)n3)ccc21 [Example 52, N-[2-(4-Fluoro-benzyl)-2H-[1,2,3]triazol-4-yl]-2-(1-methyl-1H-indol-5-yl)-acetamide]	7.92
CC1(c2ccc(CC(=O)Nc3cnn(Cc4ccc(F)cc4)n3)cc2)COC1 [Example 53, N-[2-(4-Fluoro-benzyl)-2H-[1,2,3]triazol-4-yl]-2-[4-(3-methyl-oxetan-3-yl)-phenyl]-acetamide]	7.46
Cn1ncc2cc(CC(=O)Nc3cnn(Cc4ccc(F)cc4)n3)ccc21 [Example 56, N-[2-(4-Fluoro-benzyl)-2H-[1,2,3]triazol-4-yl]-2-(1-methyl-1H-indazol-5-yl)-acetamide]	7.42
COc1ccc(Cn2ncc(NC(=O)Cc3ccc4c(ccn4C)c3)n2)cc1 [Example 57, N-[2-(4-Methoxy-benzyl)-2H-[1,2,3]triazol-4-yl]-2-(1-methyl-1H-indol-5-yl)-acetamide]	7.42
COc1ccc(Cn2ncc(NC(=O)Cc3ccc(N4CCCC4)nc3)n2)cc1 [Example 62, N-[2-(4-Methoxy-benzyl)-2H-[1,2,3]triazol-4-yl]-2-(6-pyrrolidin-1-yl-pyridin-3-yl)-acetamide]	6.92
COc1ccc(Cn2ncc(NC(=O)Cc3ccc4c(cnn4C)c3)n2)cc1 [Example 63, N-[2-(4-Methoxy-benzyl)-2H-[1,2,3]triazol-4-yl]-2-(1-methyl-1H-indazol-5-yl)-acetamide]	6.80
Cc1ccc(Cn2ncc(NC(=O)Cc3ccc4c(ccn4C)c3)n2)cc1 [Example 64, N-[2-(4-Methyl-benzyl)-2H-[1,2,3]triazol-4-yl]-2-(1-methyl-1H-indol-5-yl)-acetamide]	7.52
Cc1ccc(Cn2ncc(NC(=O)Cc3ccc(C4(C)COC4)cc3)n2)cc1 [Example 67, N-[2-(4-Methyl-benzyl)-2H-[1,2,3]triazol-4-yl]-2-[4-(3-methyl-oxetan-3-yl)-phenyl]-acetamide]	7.18
Cc1ccc(Cn2ncc(NC(=O)Cc3ccc(N4CCCC4)nc3)n2)cc1 [Example 68, N-[2-(4-Methyl-benzyl)-2H-[1,2,3]triazol-4-yl]-2-(6-pyrrolidin-1-yl-pyridin-3-yl)-acetamide]	7.35
Cc1ccc(Cn2ncc(NC(=O)Cc3ccc4c(cnn4C)c3)n2)cc1 [Example 69, N-[2-(4-Methyl-benzyl)-2H-[1,2,3]triazol-4-yl]-2-(1-methyl-1H-indazol-5-yl)-acetamide]	7.70

Now from value to compound:

pIC50	Structure (SMILES)
6.55	O=C(Cc1ccc2[nH]nc(C(F)(F)F)c2c1)Nc1cnn(Cc2ccc(F)c(F)c2)n1 [Example 39, N-[2-(3,4-Difluoro-benzyl)-2H-[1,2,3]triazol-4-yl]-2-(3-trifluoromethyl-1H-indazol-5-yl)-acetamide]
7.74	CCOc1ccc(Cn2ncc(NC(=O)Cc3ccc(N4CCC(F)(F)C4)nc3)n2)cc1 [Example 41, 2-[6-(3,3-Difluoro-pyrrolidin-1-yl)-pyridin-3-yl]-N-[2-(4-ethoxy-benzyl)-2H-[1,2,3]triazol-4-yl]-acetamide]
7.51	CCOc1ccc(Cn2ncc(NC(=O)Cc3ccc(C4(C)COC4)cc3)n2)cc1 [Example 42, N-[2-(4-Ethoxy-benzyl)-2H-[1,2,3]triazol-4-yl]-2-[4-(3-methyl-oxetan-3-yl)-phenyl]-acetamide]
7.40	CCOc1ccc(Cn2ncc(NC(=O)Cc3ccc(C(C)C)cc3)n2)cc1 [Example 44, N-[2-(4-Ethoxy-benzyl)-2H-[1,2,3]triazol-4-yl]-2-(4-isopropyl-phenyl)-acetamide]
7.49	CCOc1ccc(Cn2ncc(NC(=O)Cc3ccc(N4CCCC4)nc3)n2)cc1 [Example 45, N-[2-(4-Ethoxy-benzyl)-2H-[1,2,3]triazol-4-yl]-2-(6-pyrrolidin-1-yl-pyridin-3-yl)-acetamide]
7.20	CCOc1ccc(Cn2ncc(NC(=O)Cc3ccc4c(cnn4C)c3)n2)cc1 [Example 46, N-[2-(4-Ethoxy-benzyl)-2H-[1,2,3]triazol-4-yl]-2-(1-methyl-1H-indazol-5-yl)-acetamide]
6.25	CCN(CC)c1ccc(CC(=O)Nc2cnn(Cc3ccc(OC)c(OC)c3)n2)cn1 [Example 47, 2-(6-Diethylamino-pyridin-3-yl)-N-[2-(3,4-dimethoxy-benzyl)-2H-[1,2,3]triazol-4-yl]-acetamide]
6.77	COc1ccc(Cn2ncc(NC(=O)Cc3ccc(C(C)(C)C)cc3)n2)cc1OC [Example 49, 2-(4-tert-Butyl-phenyl)-N-[2-(3,4-dimethoxy-benzyl)-2H-[1,2,3]triazol-4-yl]-acetamide]
6.22	COc1ccc(Cn2ncc(NC(=O)Cc3ccc(N4CCCC4)nc3)n2)cc1OC [Example 51, N-[2-(3,4-Dimethoxy-benzyl)-2H-[1,2,3]triazol-4-yl]-2-(6-pyrrolidin-1-yl-pyridin-3-yl)-acetamide]
7.59	CC(C)(C)c1ccc(CC(=O)Nc2cnn(Cc3ccc(F)cc3)n2)cc1 [Example 54, 2-(4-tert-Butyl-phenyl)-N-[2-(4-fluoro-benzyl)-2H-[1,2,3]triazol-4-yl]-acetamide]
7.30	O=C(Cc1ccc(N2CCCC2)nc1)Nc1cnn(Cc2ccc(F)cc2)n1 [Example 55, N-[2-(4-Fluoro-benzyl)-2H-[1,2,3]triazol-4-yl]-2-(6-pyrrolidin-1-yl-pyridin-3-yl)-acetamide]
6.80	CCN(CC)c1ccc(CC(=O)Nc2cnn(Cc3ccc(OC)cc3)n2)cn1 [Example 58, 2-(6-Diethylamino-pyridin-3-yl)-N-[2-(4-methoxy-benzyl)-2H-[1,2,3]triazol-4-yl]-acetamide]
7.22	COc1ccc(Cn2ncc(NC(=O)Cc3ccc(N4CCC(F)(F)C4)nc3)n2)cc1 [Example 59]
6.92	COc1ccc(Cn2ncc(NC(=O)Cc3ccc(C4(C)COC4)cc3)n2)cc1 [Example 60, N-[2-(4-Methoxy-benzyl)-2H-[1,2,3]triazol-4-yl]-2-[4-(3-methyl-oxetan-3-yl)-phenyl]-acetamide]
7.36	COc1ccc(Cn2ncc(NC(=O)Cc3ccc(C(C)(C)C)cc3)n2)cc1 [Example 61, 2-(4-tert-Butyl-phenyl)-N-[2-(4-methoxy-benzyl)-2H-[1,2,3]triazol-4-yl]-acetamide]
7.64	Cc1ccc(Cn2ncc(NC(=O)Cc3ccc(N4CCC(F)(F)C4)nc3)n2)cc1 [Example 65, 2-[6-(3,3-Difluoro-pyrrolidin-1-yl)-pyridin-3-yl]-N-[2-(4-methyl-benzyl)-2H-[1,2,3]triazol-4-yl]-acetamide]
7.15	Cc1ccc(Cn2ncc(NC(=O)Cc3ccc(C(C)(C)C)cc3)n2)cc1 [Example 66, 2-(4-tert-Butyl-phenyl)-N-[2-(4-methyl-benzyl)-2H-[1,2,3]triazol-4-yl]-acetamide]
7.74	Cn1ccc2cc(CC(=O)Nc3cnn(Cc4ccc(C#N)c(F)c4)n3)ccc21 [Example 70, N-[2-(4-Cyano-3-fluoro-benzyl)-2H-[1,2,3]triazol-4-yl]-2-(1-methyl-1H-indol-5-yl)-acetamide]

Source: patent publication US10246426B2, “Triazole compounds as T-type calcium channel blockers” (IDORSIA PHARMACEUTICALS LTD, priority 2014, dated 2019)
